Measurements as given in patent publication US10251854B2, “S-(carboxymethyl)-cysteine pharmaceutical compound and preparation method and use thereof” (Guangzhou Baiyunshan Pharmaceutical Holdings Co., Ltd. …, priority 2013, dated 2019).

How the values were obtained:
Format in all cases: in vivo
Conditions in all cases: x ± SD
[1] = tested on: rat COPD model; assay: Rat COPD model: antioxidation indexes (GSH, SOD)
Experimental: (§1) 1.1 Preparation of Rat COPD Models
(§2) A method of establishing a rat COPD model by fumigation plus endotoxin lipopolysaccharide (LPS) endotracheal drop, which is commonly used at home and abroad at present was adopted. The period is 3 months (90 days). Specific method: on the 1st, the 15th, the 29th, the 43rd, the 57th, the 71st and the 85th days of the test, the rats were anesthetized with ethylether, the roots of tongues of the rats were pulled out, and LPS (200 ug/200 ul) was dripped through tracheas by bend gavage needle heads. The rats of the normal group were dripped with physiological saline of equal amount by the same method, and weren't fumigated. The rats of the other five groups were fumigated in a self-made fumigation bin. One side of the fumigation bin was externally connected with a negative pressure pump, and the top thereof was connected with a port for inserting cigarettes. With the negative press pump turned on, the cigarettes were lit, and the smoke of the cigarettes was absorbed into the fumigation bin. In order to prevent the animals from death caused by anoxia, 12 cigarettes were lit every time, and the lid of the fumigation bin was opened 20 min after fumigation for letting in fresh air. The operation was performed 1 h/3 times/day, with the LPS (200 ug/200 ul) being dripped through the tracheas by bend gavage needle heads.
(§3) 1.2 Pharmacological Intervention
(§4) The test was 90 days long. The pharmacological intervention was started from the 15th day, the rats of the positive group were perfused with carbocisteine, the rats of the low, medium and high test groups were perfused with different doses of test medicines, and the rats of the model group and the normal group were perfused with physiological saline of equal amount.
(§5) 1.3 Indexes Determination
(§6) Blood was taken from the orbit of each rat on the second day after the test was over, serum was separated, a complete stomach was cut and washed, lung tissue was preserved, the stomach and the right upper lung were left for pathobiology test, after the rest of the lung was subjected to lung tissue homogenate, the indexes of oxidization and antioxidation, the contents of lipid peroxide (LPO), malondialdehyde (MDA) and reduced glutathione (GSH), the activity of superoxide dismutase (SOD) and the concentration of inflammatory medium TNF-α, IL-8 and IL-6 were detected.

[2] = tested on: rat COPD model; assay: Rat COPD model: inflammation indexes (TNF-α, IL-8, IL-6)
Experimental: as §1, §2, §3, §4, §5, §6

[3] = tested on: rat COPD model; assay: Rat COPD model: oxidization indexes (LPO, MDA)
Experimental: as §1, §2, §3, §4, §5, §6

S-(carboxymethyl)-D-cysteine arginine salt monohydrate [D-arginine]
GSH Lung tissue ([1]; high dose group): 114.54 ± 20.57 µmol/L
GSH Serum ([1]; high dose group): 144.17 ± 27.40 µmol/L
SOD Lung tissue ([1]; high dose group): 62.24 ± 16.47 U/mL
SOD Serum ([1]; high dose group): 92.32 ± 20.65 U/mL
GSH Lung tissue ([1]; low dose group): 92.23 ± 13.38 µmol/L
SOD Lung tissue ([1]; low dose group): 46.86 ± 19.25 U/mL
SOD Serum ([1]; low dose group): 74.53 ± 8.70 U/mL
GSH Lung tissue ([1]; medium dose group): 107.77 ± 18.26 µmol/L
SOD Lung tissue ([1]; medium dose group): 54.4 ± 12.18 U/mL
SOD Serum ([1]; medium dose group): 83.74 ± 15.27 U/mL
IL-6 Lung tissue ([2]; high dose group): 13.69 ± 4.33 pg/mL
IL-6 Serum ([2]; high dose group): 8.70 ± 2.35 pg/mL
IL-8 Lung tissue ([2]; high dose group): 10.82 ± 2.59 pg/mL
IL-8 Serum ([2]; high dose group): 7.74 ± 1.28 pg/mL
TNF-α Lung tissue ([2]; high dose group): 24.40 ± 6.09 pg/mL
TNF-α Serum ([2]; high dose group): 19.73 ± 6.08 g* pg/mL
IL-6 Lung tissue ([2]; low dose group): 17.03 ± 7.27 pg/mL
IL-6 Serum ([2]; low dose group): 11.07 ± 2.60 pg/mL
IL-8 Lung tissue ([2]; low dose group): 12.69 ± 2.33 pg/mL
IL-8 Serum ([2]; low dose group): 9.70 ± 1.35 pg/mL
TNF-α Lung tissue ([2]; low dose group): 30.10 ± 9.44 pg/mL
TNF-α Serum ([2]; low dose group): 23.12 ± 4.20 pg/mL
IL-6 Lung tissue ([2]; medium dose group): 15.44 ± 5.64 pg/mL
IL-6 Serum ([2]; medium dose group): 10.38 ± 3.54 pg/mL
IL-8 Lung tissue ([2]; medium dose group): 12.01 ± 2.11 pg/mL
IL-8 Serum ([2]; medium dose group): 8.26 ± 2.67 pg/mL
TNF-α Lung tissue ([2]; medium dose group): 28.28 ± 13.57 pg/mL
TNF-α Serum ([2]; medium dose group): 20.09 ± 5.10 pg/mL
LPO Lung tissue ([3]; high dose group): 18.74 ± 3.47 nmol/mL
LPO Serum ([3]; high dose group): 5.26 ± 0.88 nmol/mL
MDA Lung tissue ([3]; high dose group): 4.58 ± 0.66 µmol/mL
LPO Lung tissue ([3]; low dose group): 21.98 ± 2.16 nmol/mL
LPO Serum ([3]; low dose group): 6.32 ± 1.34 nmol/mL
MDA Lung tissue ([3]; low dose group): 5.21 ± 0.72 µmol/mL
MDA Serum ([3]; low dose group): 8.66 ± 2.20 µmol/mL
LPO Lung tissue ([3]; medium dose group): 20.62 ± 3.65 nmol/mL
LPO Serum ([3]; medium dose group): 5.80 ± 1.07 nmol/mL
MDA Lung tissue ([3]; medium dose group): 5.01 ± 0.41 µmol/mL

S-(carboxymethyl)-L-cysteine arginine salt monohydrate [L-arginine]
GSH Lung tissue ([1]; high dose group): 128.45 ± 24.09 µmol/L
SOD Lung tissue ([1]; high dose group): 72.36 ± 14.55 U/mL
SOD Serum ([1]; high dose group): 116.34 ± 27.86 U/mL
GSH Lung tissue ([1]; low dose group): 102.45 ± 18.97 µmol/L
GSH Serum ([1]; low dose group): 134.21 ± 26.45 µmol/L
SOD Lung tissue ([1]; low dose group): 55.67 ± 13.29 U/mL
SOD Serum ([1]; low dose group): 82.67 ± 19.45 U/mL
GSH Lung tissue ([1]; medium dose group): 116.22 ± 22.73 µmol/L
GSH Serum ([1]; medium dose group): 159.33 ± 30.20 µmol/L
SOD Lung tissue ([1]; medium dose group): 65.44 ± 17.33 U/mL
SOD Serum ([1]; medium dose group): 93.20 ± 20.77 U/mL
IL-6 Lung tissue ([2]; high dose group): 12.77 ± 4.65 pg/mL
IL-6 Serum ([2]; high dose group): 6.69 ± 1.92 pg/mL
IL-8 Lung tissue ([2]; high dose group): 9.09 ± 1.89 pg/mL
IL-8 Serum ([2]; high dose group): 6.24 ± 1.89 pg/mL
TNF-α Lung tissue ([2]; high dose group): 20.36 ± 7.41 pg/mL
TNF-α Serum ([2]; high dose group): 15.7 ± 5.16 pg/mL
IL-6 Lung tissue ([2]; low dose group): 15.80 ± 6.02 pg/mL
IL-6 Serum ([2]; low dose group): 9.17 ± 3.08 pg/mL
IL-8 Lung tissue ([2]; low dose group): 11.88 ± 303 pg/mL
IL-8 Serum ([2]; low dose group): 8.56 ± 2.33 pg/mL
TNF-α Lung tissue ([2]; low dose group): 26.17 ± 8.33 pg/mL
TNF-α Serum ([2]; low dose group): 20.22 ± 4.77 pg/mL
IL-6 Lung tissue ([2]; medium dose group): 14.22 ± 5.13 pg/mL
IL-6 Serum ([2]; medium dose group): 7.66 ± 2.83 pg/mL
IL-8 Lung tissue ([2]; medium dose group): 9.98 ± 2.43 pg/mL
IL-8 Serum ([2]; medium dose group): 7.39 ± 2.02 pg/mL
TNF-α Lung tissue ([2]; medium dose group): 23.65 ± 11.21 pg/mL
TNF-α Serum ([2]; medium dose group): 18.6 ± 3.89 pg/mL
LPO Lung tissue ([3]; high dose group): 16.09 ± 3.22 nmol/mL
LPO Serum ([3]; high dose group): 4.25 ± 0.99 nmol/mL
MDA Lung tissue ([3]; high dose group): 3.96 ± 0.57 µmol/mL
MDA Serum ([3]; high dose group): 6.79 ± 1.83 µmol/mL
LPO Lung tissue ([3]; low dose group): 19.66 ± 3.90 nmol/mL
LPO Serum ([3]; low dose group): 5.78 ± 1.65 nmol/mL
MDA Lung tissue ([3]; low dose group): 4.77 ± 0.72 µmol/mL
MDA Serum ([3]; low dose group): 8.02 ± 1.54 µmol/mL
LPO Lung tissue ([3]; medium dose group): 17.78 ± 2.98 nmol/mL
LPO Serum ([3]; medium dose group): 4.87 ± 1.90 nmol/mL
MDA Lung tissue ([3]; medium dose group): 4.40 ± 0.60 µmol/mL
MDA Serum ([3]; medium dose group): 7.34 ± 2.44 µmol/mL

N.N.N[C@H](CSCC(=O)O)C(=O)O.O [D-ammonium, S-(carboxymethyl)-D-cysteine ammonium salt monohydrate]
GSH Lung tissue ([1]; high dose group): 120.13 ± 25.76 µmol/L
GSH Serum ([1]; high dose group): 158.76 ± 29.50 µmol/L
SOD Lung tissue ([1]; high dose group): 70.51 ± 20.90 U/mL
SOD Serum ([1]; high dose group): 98.28 ± 19.15 U/mL
GSH Lung tissue ([1]; low dose group): 94.54 ± 17.50 µmol/L
GSH Serum ([1]; low dose group): 120.16 ± 17.05 µmol/L
SOD Lung tissue ([1]; low dose group): 52.17 ± 16.44 U/mL
SOD Serum ([1]; low dose group): 72.30 ± 12.66 U/mL
GSH Lung tissue ([1]; medium dose group): 109.68 ± 24.63 µmol/L
GSH Serum ([1]; medium dose group): 131.33 ± 24.17 µmol/L
SOD Lung tissue ([1]; medium dose group): 60.31 ± 14.12 U/mL
SOD Serum ([1]; medium dose group): 88.85 ± 17.47 U/mL
IL-6 Lung tissue ([2]; high dose group): 13.83 ± 6.19 pg/mL
IL-6 Serum ([2]; high dose group): 7.93 ± 3.10 pg/mL
IL-8 Lung tissue ([2]; high dose group): 11.44 ± 1.64 pg/mL
IL-8 Serum ([2]; high dose group): 7.38 ± 1.54 pg/mL
TNF-α Lung tissue ([2]; high dose group): 21.33 ± 8.57 pg/mL
TNF-α Serum ([2]; high dose group): 17.19 ± 4.05 pg/mL
IL-6 Lung tissue ([2]; low dose group): 16.36 ± 4.78 pg/mL
IL-6 Serum ([2]; low dose group): 10.76 ± 2.90 pg/mL
IL-8 Lung tissue ([2]; low dose group): 13.09 ± 2.98 pg/mL
IL-8 Serum ([2]; low dose group): 8.56 ± 2.79 pg/mL
TNF-α Lung tissue ([2]; low dose group): 28.26 ± 12.06 pg/mL
TNF-α Serum ([2]; low dose group): 21.12 ± 4.11 pg/mL
IL-6 Lung tissue ([2]; medium dose group): 15.61 ± 4.40 pg/mL
IL-6 Serum ([2]; medium dose group): 9.09 ± 3.23 pg/mL
IL-8 Lung tissue ([2]; medium dose group): 11.90 ± 1.77 pg/mL
IL-8 Serum ([2]; medium dose group): 8.05 ± 1.72 pg/mL
TNF-α Lung tissue ([2]; medium dose group): 25.02 ± 10.89 pg/mL
TNF-α Serum ([2]; medium dose group): 19.86 ± 3.58 pg/mL
LPO Lung tissue ([3]; high dose group): 17.33 ± 4.07 nmol/mL
LPO Serum ([3]; high dose group): 4.97 ± 1.74 nmol/mL
MDA Lung tissue ([3]; high dose group): 4.35 ± 0.63 µmol/mL
MDA Serum ([3]; high dose group): 7.05 ± 1.59 µmol/mL
LPO Lung tissue ([3]; low dose group): 20.35 ± 3.70 nmol/mL
LPO Serum ([3]; low dose group): 6.07 ± 1.55 nmol/mL
MDA Lung tissue ([3]; low dose group): 5.12 ± 1.11 µmol/mL
MDA Serum ([3]; low dose group): 8.28 ± 2.09 µmol/mL
LPO Lung tissue ([3]; medium dose group): 18.38 ± 2.86 nmol/mL
LPO Serum ([3]; medium dose group): 5.20 ± 0.96 nmol/mL
MDA Lung tissue ([3]; medium dose group): 4.90 ± 0.43 µmol/mL
MDA Serum ([3]; medium dose group): 7.75 ± 1.93 µmol/mL
